Molecules are shown by their SMILES. *1 amine or outer side, *2 acyl side, *3 side chain or, on linkers, in order; H or OH if unused. Where a SMILES comes first, the peptide text is derived from it. Side-chain parts run from the residue outwards. The star is where a group is joined. C18 diacid = O=C(O)CCCCCCCCCCCCCCCCC(=O)*; γGlu = O=C(O)[C@H](CCC(=O)[*:2])N[*:1]; Isovaleryl = CC(C)CC(=O)*; AEEA = NCCOCCOCC(=O)O

What is called Ki is the dissociation constant of the complex between target and ligand, obtained from inhibition or displacement.

For this test, the target named is T1, Human Neuropeptide Y2 Receptor (Homo sapiens, UniProt P49146).
T1 construct: purchased CHEMICON HTS066M
T1 sequence (P49146 1-381): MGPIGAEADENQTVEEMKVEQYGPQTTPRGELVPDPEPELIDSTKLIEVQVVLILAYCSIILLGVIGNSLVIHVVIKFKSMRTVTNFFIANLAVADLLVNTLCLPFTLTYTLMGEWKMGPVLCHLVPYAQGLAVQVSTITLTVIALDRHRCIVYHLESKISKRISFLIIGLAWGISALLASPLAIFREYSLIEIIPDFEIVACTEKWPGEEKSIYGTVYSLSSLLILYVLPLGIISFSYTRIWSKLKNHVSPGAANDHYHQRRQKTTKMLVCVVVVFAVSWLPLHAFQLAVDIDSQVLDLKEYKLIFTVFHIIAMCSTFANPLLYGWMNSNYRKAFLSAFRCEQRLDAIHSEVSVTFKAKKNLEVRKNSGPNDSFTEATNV
Put plainly: Radioligand binding competition assay (RLB). The following applies: Table 3; human 125I-PYY (1-36) 0.02 nM, Y2 receptor membranes; read-out: Ki. Summed up:
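IC50 values come from nonlinear regression of sigmoidal dose-response curves of filter-bound radioactivity. Peptides competed with radioligand at human Y2 receptor membranes (0.5 μg protein/well) for 2 h at room temperature in pH 7.4 HEPES buffer containing Mg2+, Ca2+ and 0.2% ovalbumin.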
Consider `CC(C)CC(=O)N[C@@H](C)C(=O)N1CCC[C@H]1C(=O)N[C@@H](CCC(=O)O)C(=O)N[C@@H](CCCCNC(=O)COCCOCCNC(=O)COCCOCCNC(=O)CC[C@H](NC(=O)CCCCCCCCCCCCCCCCC(=O)O)C(=O)O)C(=O)N1CCC[C@H]1C(=O)N[C@@H](CCC(=O)O)C(=O)N[C@@H](CCC(=O)O)C(=O)N[C@@H](CCC(=O)O)C(=O)N[C@@H](C)C(=O)N[C@@H](CO)C(=O)N1CCC[C@H]1C(=O)N[C@@H](CCC(=O)O)C(=O)N[C@@H](CCC(=O)O)C(=O)N[C@H](C(=O)N[C@@H](CCC(N)=O)C(=O)N[C@@H](CCCNC(=N)N)C(=O)N[C@@H](Cc1ccc(O)cc1)C(=O)N[C@@H](Cc1ccc(O)cc1)C(=O)N[C@H](C(=O)N[C@@H](CO)C(=O)N[C@@H](CC(C)C)C(=O)N[C@@H](CCCNC(=N)N)C(=O)N[C@@H](Cc1c[nH]cn1)C(=O)N[C@@H](Cc1ccc(O)cc1)C(=O)N[C@@H](Cc1ccc(O)cc1)C(=O)N[C@@H](CC(N)=O)C(=O)N[C@@H](Cc1c[nH]c2ccccc12)C(=O)N[C@@H](CC(C)C)C(=O)N[C@H](C(=O)N[C@@H](CCCNC(=N)N)C(=O)N[C@@H](CCC(N)=O)C(=O)N[C@@H](CCCNC(=N)N)C(=O)N[C@@H](Cc1ccc(O)cc1)C(N)=O)[C@@H](C)O)C(C)C)C(C)C` [Compound 204, N{alpha-4}-(3-methylbutanoyl)-N{epsilon-7}-[2-(2-{2-[2-(2-{2-[(4S)-4-carboxy-4-(17-carboxyheptadecanamido)butanamido]ethoxy}ethoxy)acetamido]ethoxy}ethoxy)acetamido]-[4A,7K,9E,11E,17V,18Q,22V,28Y,30W,31L]hPYY (4-36)] (Isovaleryl-APEK([AEEA-AEEA-γGlu-C18 diacid])PEEEASPEEVQRYYVSLRHYYNWLTRQRY-NH2), for which the inhibition constant Ki came out at 3.35 nM.

Regarding `CC(C)CC(=O)N[C@@H](C)C(=O)N1CCC[C@H]1C(=O)N[C@@H](C)C(=O)N[C@@H](CCCCNC(=O)COCCOCCNC(=O)COCCOCCNC(=O)CC[C@H](NC(=O)CCCCCCCCCCCCCCCCC(=O)O)C(=O)O)C(=O)N1CCC[C@H]1C(=O)N[C@@H](CCC(=O)O)C(=O)N[C@@H](C)C(=O)N[C@@H](CC(=O)O)C(=O)N[C@@H](C)C(=O)N[C@@H](CCC(=O)O)C(=O)N1CCC[C@H]1C(=O)N[C@@H](CCC(=O)O)C(=O)N[C@@H](CCC(=O)O)C(=O)N[C@@H](CC(C)C)C(=O)N[C@@H](CCC(N)=O)C(=O)N[C@@H](CCCNC(=N)N)C(=O)N[C@@H](Cc1ccc(O)cc1)C(=O)N[C@@H](Cc1ccc(O)cc1)C(=O)N[C@H](C(=O)N[C@@H](CO)C(=O)N[C@@H](CC(C)C)C(=O)N[C@@H](CCCNC(=N)N)C(=O)N[C@@H](Cc1c[nH]cn1)C(=O)N[C@@H](Cc1ccc(O)cc1)C(=O)N[C@@H](Cc1ccc(O)cc1)C(=O)N[C@@H](CC(N)=O)C(=O)N[C@@H](Cc1c[nH]c2ccccc12)C(=O)N[C@@H](CC(C)C)C(=O)N[C@H](C(=O)N[C@@H](CCCNC(=N)N)C(=O)N[C@@H](CCC(N)=O)C(=O)N[C@@H](CCCNC(=N)N)C(=O)N[C@@H](Cc1ccc(O)cc1)C(N)=O)[C@@H](C)O)C(C)C` [Compound 207, N{alpha-4}-(3-methylbutanoyl)-N{epsilon-7}-[2-(2-{2-[2-(2-{2-[(4S)-4-carboxy-4-(17-carboxyheptadecanamido)butanamido]ethoxy}ethoxy)acetamido]ethoxy}ethoxy)acetamido]-[4A,6A,7K,9E,10A,13E,18Q,22V,28Y,30W,31L]hPYY (4-36)], the inhibitory constant (Ki) is 1.07 nM.

Consider `CC[C@H](C)[C@H](NC(=O)[C@H](CCCCNC(=O)COCCOCCNC(=O)COCCOCCNC(=O)CC[C@H](NC(=O)CCCCCCCCCCCCCCCCC(=O)O)C(=O)O)NC(=O)[C@H](CCC(=O)O)NC(=O)[C@@H]1CCCN1C(=O)[C@H](C)NC(=O)CC(C)C)C(=O)N[C@@H](CCC(=O)O)C(=O)N[C@@H](CCC(=O)O)C(=O)N[C@@H](CCC(=O)O)C(=O)N[C@@H](C)C(=O)N[C@@H](CO)C(=O)N1CCC[C@H]1C(=O)N[C@@H](CCC(=O)O)C(=O)N[C@@H](CCC(=O)O)C(=O)N[C@@H](CC(C)C)C(=O)N[C@@H](CCC(N)=O)C(=O)N[C@@H](CCCNC(=N)N)C(=O)N[C@@H](Cc1ccc(O)cc1)C(=O)N[C@@H](Cc1ccc(O)cc1)C(=O)N[C@H](C(=O)N[C@@H](CO)C(=O)N[C@@H](CC(C)C)C(=O)N[C@@H](CCCNC(=N)N)C(=O)N[C@@H](Cc1c[nH]cn1)C(=O)N[C@@H](Cc1ccc(O)cc1)C(=O)N[C@@H](Cc1ccc(O)cc1)C(=O)N[C@@H](CC(N)=O)C(=O)N[C@@H](Cc1c[nH]c2ccccc12)C(=O)N[C@@H](CC(C)C)C(=O)N[C@H](C(=O)N[C@@H](CCCNC(=N)N)C(=O)N[C@@H](CCC(N)=O)C(=O)N[C@@H](CCCNC(=N)N)C(=O)N[C@@H](Cc1ccc(O)cc1)C(N)=O)[C@@H](C)O)C(C)C` [Compound 210, N{alpha-4}-(3-methylbutanoyl)-N{epsilon-7}-[2-(2-{2-[2-(2-{2-[(4S)-4-carboxy-4-(17-carboxyheptadecanamido)butanamido]ethoxy}ethoxy)acetamido]ethoxy}ethoxy)acetamido]-[4A,7K,8I,9E,11E,18Q,22V,28Y,30W,31L]hPYY (4-36)] (Isovaleryl-APEK([AEEA-AEEA-γGlu-C18 diacid])IEEEASPEELQRYYVSLRHYYNWLTRQRY-NH2), for which the Ki was 10.5 nM.

`CC(C)CC(=O)N[C@@H](C)C(=O)N1CCC[C@H]1C(=O)N[C@@H](CCC(=O)O)C(=O)N[C@@H](CCCCNC(=O)COCCOCCNC(=O)COCCOCCNC(=O)CC[C@H](NC(=O)CCCCCCCCCCCCCCCCC(=O)O)C(=O)O)C(=O)N1CCC[C@H]1C(=O)N[C@@H](CCC(=O)O)C(=O)N[C@@H](CCC(=O)O)C(=O)N[C@@H](CC(=O)O)C(=O)N[C@H](C(=O)N[C@@H](C)C(=O)N1CCC[C@H]1C(=O)N[C@@H](CCC(=O)O)C(=O)N[C@@H](CCC(=O)O)C(=O)N[C@@H](CC(C)C)C(=O)N[C@@H](CCC(N)=O)C(=O)N[C@@H](CCCNC(=N)N)C(=O)N[C@@H](Cc1ccc(O)cc1)C(=O)N[C@@H](Cc1ccc(O)cc1)C(=O)N[C@H](C(=O)N[C@@H](CO)C(=O)N[C@@H](CC(C)C)C(=O)N[C@@H](CCCNC(=N)N)C(=O)N[C@@H](Cc1c[nH]cn1)C(=O)N[C@@H](Cc1ccc(O)cc1)C(=O)N[C@@H](Cc1ccc(O)cc1)C(=O)N[C@@H](CC(N)=O)C(=O)N[C@@H](Cc1c[nH]c2ccccc12)C(=O)N[C@@H](CC(C)C)C(=O)N[C@H](C(=O)N[C@@H](CCCNC(=N)N)C(=O)N[C@@H](CCC(N)=O)C(=O)N[C@@H](CCCNC(=N)N)C(=O)N[C@@H](Cc1ccc(O)cc1)C(N)=O)[C@@H](C)O)C(C)C)[C@@H](C)O` [Compound 212, N{alpha-4}-(3-methylbutanoyl)-N{epsilon-7}-[2-(2-{2-[2-(2-{2-[(4S)-4-carboxy-4-(17-carboxyheptadecanamido)butanamido]ethoxy}ethoxy)acetamido]ethoxy}ethoxy)acetamido]-[4A,7K,9E,12T,13A,18Q,22V,28Y,30W,31L]hPYY (4-36)]: the Ki is 20.3 nM.

The record behind these values is patent US12559529B2, “NPY2 receptor agonists” (Boehringer Ingelheim International GmbH, priority 2019, dated 2026).
